The values that follow come from patent US20060211687A1, “Potassium salt of an hiv integrase inhibitor” (priority 2003, published 2006).

Data set [1] in a line: solubility in ethanol containing water. It is filed as physicochemical. Conditions: ethanol containing 1 to 5 vol. % and 10 vol% water. The procedure: Experiments have been conducted in which the Compound A K salt ethanolate of the present invention was slurried in ethanol containing 1, 2, 3, 4, 5 and 10 vol. % water, followed by measurement of the XRPD patterns of the collected crystals. In addition, the solubility of the Compound A K salt ethanolate was also determined for the 1 to 5 vol. % and 10 vol% water in ethanol solutions. […] Accordingly, it is believed that the crystalline ethanolate hydrate material of the present invention exists as a water-ethanol isomorphic co-solvate. […] In accordance with these experimental results, the crystalline potassium salt ethanolate of Compound A of the invention can contain water as a co-solvate up to a maximum water content, beyond which the crystalline salt (as shown by the XRPD and solubility results described above) changes to another form.

For a further data set, the target named is T1, HIV integrase (Human immunodeficiency virus type 1 group M subtype B, UniProt P04585).
T1 construct: strand transfer is catalyzed by recombinant integrase
As to the kind of experiment: integrase inhibition assay in which strand transfer is catalyzed by recombinant integrase. It is filed as biochemical. Conditions: assay of Example 193 of WO 02/30930. From the text: Compound A is an inhibitor of HIV integrase. […] The strand transfer assay is described in Example 193 of WO 02/30930.

The subject of data set [2] is HIV infection of T-lymphoid cells. As to the kind of experiment: inhibition of acute HIV infection of T-lymphoid cells. It is filed as cell-based. Conditions: in accordance with Vacca et al.
The next data set can be described thus: solubility in water. Conditions: compared to the free base. It is filed as physicochemical.
Data set [3] can be described thus: pharmacokinetics in animal models. It is filed as in vivo. The note with it: over the free base.
The nature of data set [4]: oral bioavailability and pharmacokinetics in rats. It is filed as in vivo. Conditions: relative to amorphous and crystalline Compound A.
Data set [5] in a line: oral bioavailability and pharmacokinetics in dogs. It is filed as in vivo. Conditions: relative to amorphous and crystalline Compound A.
The next data set in a line: hygroscopicity. It is filed as physicochemical. The note with it: compared with the sodium salt of Compound A.
Another data set is described as follows: stability of the salt. It is filed as physicochemical. Conditions: compared with the sodium salt of Compound A.
Setting [6] is: listed as crystalline potassium salt of Compound A.

Molecules are shown by their SMILES.

Consider `CNC(=O)c1cc(F)ccc1CNC(=O)c1nc(N2CCCCS2(=O)=O)c2cccnc2c1[O-].[K+]` [Salt A1, Potassium 5-(1,1-dioxido-1,2-thiazinan-2-yl)-7-[({4-fluoro-2-[(methylamino)carbonyl]benzyl}amino)carbonyl]-1,6-naphthyridin-8-olate], for which the solubility trend entry in data set [1] was “increasing solubility from 1 to 5 vol % reversed to lower solubility at 10 vol. %”.

As for `CNC(=O)c1cc(F)ccc1CNC(=O)c1nc(N2CCCCS2(=O)=O)c2cccnc2c1O` [Compound A, 5-(1,1-dioxido-1,2-thiazinan-2-yl)-N-{4-fluoro-2-[(methylamino)carbonyl]benzyl}-8-hydroxy-1,6-naphthyridine-7-carboxamide], the “inhibition of HIV integrase (strand transfer)” value at HIV integrase is listed as “potent inhibitor”. For the same molecule, in data set [2], the “inhibition of acute HIV infection of T-lymphoid cells” value was “active”.

With `CNC(=O)c1cc(F)ccc1CNC(=O)c1nc(N2CCCCS2(=O)=O)c2cccnc2c1[O-].[K+]` [potassium salt of Compound A, Potassium 5-(1,1-dioxido-1,2-thiazinan-2-yl)-7-[({4-fluoro-2-[(methylamino)-carbonyl]benzyl}amino)carbonyl]-1,6-naphthyridin-8-olate], the solubility in water entry in the data set “solubility in water” is given as “significantly more soluble”. Besides, in data set [3], the pharmacokinetics result is “improved”. Further, the AUC entry in [4] and in data set [5] was “improved” in each case. The Cmax result in data set [4] and in data set [5] was “improved” in each case. Moreover, the oral bioavailability result in data set [4] and in data set [5] was “superior” throughout. In addition, the hygroscopicity entry in “hygroscopicity” is listed as “significantly less hygroscopic”; in the data set “hygroscopicity” (setting [6]), “less”. In addition, the values for the stability result in the data set “stability of the salt” and in the data set “stability of the salt” (setting [6]) were “more stable” and “improved”, respectively.
